Test results reported in ChEMBL document CHEMBL5352421, “Identification of novel piperazine-tethered phthalazines as selective CDK1 inhibitors endowed with in vitro anticancer activity toward the pancreatic cancer” (Eur J Med Chem, 2022).
Calls of active or inactive are those of the source. The rule behind the calls is not given here.

Legend:
[1] = system: G-361; assay: Antiproliferative activity against human G-361 cells assessed as growth inhibition incubated at 10 uM for 24 hrs by MTT assay relative to control; assay type: functional; conditions: read-out: GI
[2] = system: MOLT-4; assay: Antiproliferative activity against human MOLT-4 cells assessed as growth inhibition incubated at 10 uM for 24 hrs by MTT assay relative to control; assay type: functional; conditions: read-out: GI
[3] = Antiproliferative activity against human MDA-PATC53 cells assessed as growth inhibition incubated at 10 uM for 24 hrs by MTT assay relative to control; assay type: functional; conditions: read-out: GI
[4] = biological target: T1, Tyrosine-protein kinase receptor UFO (Homo sapiens, UniProt P30530); assay: Inhibition of AXL (unknown origin) by FRET assay
T1 sequence (P30530 whole entry): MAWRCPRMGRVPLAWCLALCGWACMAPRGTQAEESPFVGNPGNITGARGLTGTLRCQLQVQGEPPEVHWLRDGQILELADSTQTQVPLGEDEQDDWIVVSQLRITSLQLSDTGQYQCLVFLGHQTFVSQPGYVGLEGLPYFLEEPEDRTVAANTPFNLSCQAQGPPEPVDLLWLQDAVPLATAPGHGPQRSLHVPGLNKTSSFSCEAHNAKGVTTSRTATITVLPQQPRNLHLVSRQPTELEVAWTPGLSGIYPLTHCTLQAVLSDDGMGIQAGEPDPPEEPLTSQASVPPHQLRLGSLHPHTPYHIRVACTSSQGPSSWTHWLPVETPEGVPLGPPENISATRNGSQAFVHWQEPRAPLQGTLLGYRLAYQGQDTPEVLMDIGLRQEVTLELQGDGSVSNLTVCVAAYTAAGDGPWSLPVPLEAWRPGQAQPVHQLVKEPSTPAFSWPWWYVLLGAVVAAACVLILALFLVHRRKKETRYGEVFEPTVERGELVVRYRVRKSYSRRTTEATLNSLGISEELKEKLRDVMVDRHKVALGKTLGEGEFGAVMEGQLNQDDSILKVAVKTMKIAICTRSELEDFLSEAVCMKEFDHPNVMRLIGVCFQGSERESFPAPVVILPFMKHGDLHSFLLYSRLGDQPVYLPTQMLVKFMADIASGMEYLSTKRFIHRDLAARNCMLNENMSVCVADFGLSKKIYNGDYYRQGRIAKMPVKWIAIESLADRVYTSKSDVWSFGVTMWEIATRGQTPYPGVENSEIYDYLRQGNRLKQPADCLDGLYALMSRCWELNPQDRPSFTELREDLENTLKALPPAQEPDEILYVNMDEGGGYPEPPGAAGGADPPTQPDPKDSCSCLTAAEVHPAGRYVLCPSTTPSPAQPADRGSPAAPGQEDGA

[5] = biological target: Fibroblast growth factor receptor (Homo sapiens, UniProt P22607+P11362+P22455+P21802); assay: Inhibition of FGFR (unknown origin) by FRET assay; assay type: protein assay
[6] = system: MCF7; assay: Antiproliferative activity against human MCF7 cells assessed as growth inhibition incubated at 10 uM for 24 hrs by MTT assay relative to control; assay type: functional; conditions: read-out: GI
[7] = biological target: Insulin-like growth factor 1 receptor (Homo sapiens, UniProt P08069); assay: Inhibition of IGF1R (unknown origin) by FRET assay
Insulin-like growth factor 1 receptor, sequence (P08069 31-736 limits assumed): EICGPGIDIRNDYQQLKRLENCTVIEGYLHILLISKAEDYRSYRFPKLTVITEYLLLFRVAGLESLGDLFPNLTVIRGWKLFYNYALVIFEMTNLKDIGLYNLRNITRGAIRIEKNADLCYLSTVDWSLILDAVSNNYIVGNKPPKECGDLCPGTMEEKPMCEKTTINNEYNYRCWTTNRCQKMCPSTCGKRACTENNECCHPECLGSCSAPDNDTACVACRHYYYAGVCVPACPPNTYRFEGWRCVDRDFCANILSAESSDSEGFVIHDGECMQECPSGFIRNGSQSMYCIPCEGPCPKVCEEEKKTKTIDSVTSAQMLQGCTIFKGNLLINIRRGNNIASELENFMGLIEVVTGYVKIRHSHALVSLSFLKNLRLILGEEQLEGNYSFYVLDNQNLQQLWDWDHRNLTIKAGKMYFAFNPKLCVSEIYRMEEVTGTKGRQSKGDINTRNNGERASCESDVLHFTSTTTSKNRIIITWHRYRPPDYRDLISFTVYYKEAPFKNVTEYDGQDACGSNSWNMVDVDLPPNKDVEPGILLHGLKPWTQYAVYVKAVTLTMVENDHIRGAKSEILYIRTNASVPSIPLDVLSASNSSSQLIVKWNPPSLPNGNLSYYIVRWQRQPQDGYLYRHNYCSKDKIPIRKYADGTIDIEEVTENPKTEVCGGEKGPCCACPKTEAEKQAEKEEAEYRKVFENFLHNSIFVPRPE
Insulin-like growth factor 1 receptor, sequence (P08069 741-1367 limits assumed): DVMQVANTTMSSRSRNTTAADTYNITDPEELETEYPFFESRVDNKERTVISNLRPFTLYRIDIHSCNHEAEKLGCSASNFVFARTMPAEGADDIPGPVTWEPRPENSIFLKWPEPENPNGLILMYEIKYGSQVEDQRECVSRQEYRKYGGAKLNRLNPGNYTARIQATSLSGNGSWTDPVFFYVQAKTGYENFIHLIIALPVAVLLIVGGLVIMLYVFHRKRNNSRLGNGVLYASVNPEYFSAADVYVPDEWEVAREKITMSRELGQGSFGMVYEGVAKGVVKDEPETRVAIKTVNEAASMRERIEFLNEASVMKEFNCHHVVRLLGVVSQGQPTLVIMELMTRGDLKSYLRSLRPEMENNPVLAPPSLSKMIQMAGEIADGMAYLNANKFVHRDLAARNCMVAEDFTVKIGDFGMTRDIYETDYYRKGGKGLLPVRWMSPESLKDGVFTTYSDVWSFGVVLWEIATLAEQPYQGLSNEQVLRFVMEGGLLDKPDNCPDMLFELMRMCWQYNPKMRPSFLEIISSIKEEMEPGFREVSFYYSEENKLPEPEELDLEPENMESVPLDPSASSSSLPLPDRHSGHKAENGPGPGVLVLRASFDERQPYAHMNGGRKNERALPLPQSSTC

[8] = biological target: Cyclin-dependent kinase 5 (Homo sapiens, UniProt Q00535); assay: Inhibition of CDK5 (unknown origin) by FRET assay
Cyclin-dependent kinase 5, sequence (Q00535 whole entry): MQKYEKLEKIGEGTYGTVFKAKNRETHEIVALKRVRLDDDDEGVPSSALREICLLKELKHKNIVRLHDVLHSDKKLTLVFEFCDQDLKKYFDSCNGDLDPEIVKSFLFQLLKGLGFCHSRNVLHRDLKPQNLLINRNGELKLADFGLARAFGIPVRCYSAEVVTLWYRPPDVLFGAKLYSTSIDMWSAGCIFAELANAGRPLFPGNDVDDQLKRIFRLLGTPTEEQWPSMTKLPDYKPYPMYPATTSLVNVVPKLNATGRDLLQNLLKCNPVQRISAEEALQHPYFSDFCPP

[9] = biological target: Tyrosine-protein kinase JAK1 (Homo sapiens, UniProt P23458); assay: Inhibition of JAK1 (unknown origin) by FRET assay
Tyrosine-protein kinase JAK1, sequence (P23458 whole entry): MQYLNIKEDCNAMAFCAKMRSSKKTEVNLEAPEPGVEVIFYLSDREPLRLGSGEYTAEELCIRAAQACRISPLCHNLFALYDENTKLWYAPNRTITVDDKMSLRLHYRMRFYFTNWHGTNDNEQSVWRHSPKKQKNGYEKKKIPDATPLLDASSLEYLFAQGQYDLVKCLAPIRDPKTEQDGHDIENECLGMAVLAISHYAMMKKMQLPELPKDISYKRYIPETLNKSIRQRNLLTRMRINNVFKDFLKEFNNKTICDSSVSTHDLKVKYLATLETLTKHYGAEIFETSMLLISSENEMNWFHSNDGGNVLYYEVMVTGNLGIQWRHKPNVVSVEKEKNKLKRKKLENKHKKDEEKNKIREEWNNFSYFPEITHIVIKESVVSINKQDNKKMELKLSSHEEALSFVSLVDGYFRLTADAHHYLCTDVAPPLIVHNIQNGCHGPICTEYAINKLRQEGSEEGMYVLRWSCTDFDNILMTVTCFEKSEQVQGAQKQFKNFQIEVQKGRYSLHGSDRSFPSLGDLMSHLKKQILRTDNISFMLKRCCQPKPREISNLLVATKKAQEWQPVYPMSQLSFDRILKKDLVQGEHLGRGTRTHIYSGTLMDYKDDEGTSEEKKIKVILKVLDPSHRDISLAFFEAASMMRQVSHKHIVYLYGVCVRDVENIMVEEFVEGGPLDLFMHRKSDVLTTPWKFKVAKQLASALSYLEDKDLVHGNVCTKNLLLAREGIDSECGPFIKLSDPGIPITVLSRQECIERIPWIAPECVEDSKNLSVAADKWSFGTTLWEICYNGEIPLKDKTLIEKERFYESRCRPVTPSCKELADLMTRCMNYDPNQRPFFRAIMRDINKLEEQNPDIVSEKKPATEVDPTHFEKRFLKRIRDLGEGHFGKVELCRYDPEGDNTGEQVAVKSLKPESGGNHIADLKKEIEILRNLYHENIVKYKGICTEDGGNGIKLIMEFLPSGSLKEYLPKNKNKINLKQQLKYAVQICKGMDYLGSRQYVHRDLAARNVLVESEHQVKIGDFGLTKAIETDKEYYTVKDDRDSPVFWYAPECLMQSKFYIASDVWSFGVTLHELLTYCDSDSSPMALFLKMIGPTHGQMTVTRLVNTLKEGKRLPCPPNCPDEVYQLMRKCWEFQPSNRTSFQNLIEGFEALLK

[10] = biological target: Cyclin-dependent kinase 2 (Homo sapiens, UniProt P24941); assay: Inhibition of CDK2 (unknown origin) by FRET assay
[11] = Induction of cell cycle arrest in human MDA-PATC53 cells assessed as accumulation of cells at G2/M phase incubated at IC50 for 24 hrs measured by flow cytometric analysis (reference value: 9%); assay type: functional
[12] = system: KG-1; assay: Antiproliferative activity against human KG-1 cells assessed as growth inhibition incubated at 10 uM for 24 hrs by MTT assay relative to control; assay type: functional; conditions: read-out: GI
[13] = Antiproliferative activity against human PL45 cells assessed as growth inhibition incubated at 10 uM for 24 hrs by MTT assay relative to control; assay type: functional; conditions: read-out: GI
[14] = Selectivity index, ratio of IC50 for CDK2 (unknown origin) to CDK1 (unknown origin)
[15] = biological target: Serine/threonine-protein kinase B-raf (Homo sapiens, UniProt P15056); assay: Inhibition of BRAF (unknown origin) by FRET assay
Serine/threonine-protein kinase B-raf, sequence (P15056 whole entry): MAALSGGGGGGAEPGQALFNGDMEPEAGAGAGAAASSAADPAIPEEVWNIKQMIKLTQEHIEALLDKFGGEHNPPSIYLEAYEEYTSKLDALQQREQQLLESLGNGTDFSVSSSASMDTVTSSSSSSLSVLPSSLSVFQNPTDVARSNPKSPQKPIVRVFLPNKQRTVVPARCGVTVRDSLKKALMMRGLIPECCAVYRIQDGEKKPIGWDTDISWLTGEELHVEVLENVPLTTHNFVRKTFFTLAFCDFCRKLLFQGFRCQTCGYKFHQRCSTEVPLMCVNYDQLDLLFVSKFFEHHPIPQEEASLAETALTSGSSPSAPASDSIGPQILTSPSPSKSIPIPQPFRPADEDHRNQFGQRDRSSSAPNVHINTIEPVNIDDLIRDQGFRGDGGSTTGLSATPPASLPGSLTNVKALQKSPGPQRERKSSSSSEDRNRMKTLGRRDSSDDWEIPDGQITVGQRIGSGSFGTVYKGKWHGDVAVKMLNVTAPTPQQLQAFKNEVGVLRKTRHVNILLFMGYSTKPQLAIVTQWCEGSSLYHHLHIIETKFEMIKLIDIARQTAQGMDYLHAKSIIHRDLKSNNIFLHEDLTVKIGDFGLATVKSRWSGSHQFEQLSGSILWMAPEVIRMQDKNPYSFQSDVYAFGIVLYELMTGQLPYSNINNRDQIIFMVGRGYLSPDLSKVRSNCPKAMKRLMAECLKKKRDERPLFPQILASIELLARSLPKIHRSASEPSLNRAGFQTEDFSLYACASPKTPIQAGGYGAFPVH

[16] = system: A-375; assay: Antiproliferative activity against human A-375 cells assessed as growth inhibition incubated at 10 uM for 24 hrs by MTT assay relative to control; assay type: functional; conditions: read-out: GI
[17] = system: MDA-PATC53; assay: Induction of cell cycle arrest in human MDA-PATC53 cells assessed as accumulation of cells at S phase incubated at IC50 for 24 hrs measured by flow cytometric analysis; assay type: functional, cell-based
[18] = Selectivity index, ratio of IC50 for CDK5 (unknown origin) to CDK1 (unknown origin)
[19] = system: MDA-PATC53; assay: Downregulation of CDK1 expression in human MDA-PATC53 cells incubated at IC50 for 24 hrs by Western blotting analysis; assay type: functional, cell-based
[20] = Antiproliferative activity against human MDA-PATC53 cells assessed as growth inhibition incubated for 24 hrs by MTT assay; assay type: functional, cell-based; conditions: MDA-PATC53, 24 h
[21] = system: HT-29; assay: Antiproliferative activity against human HT-29 cells assessed as growth inhibition incubated at 10 uM for 24 hrs by MTT assay relative to control; assay type: functional; conditions: read-out: GI
[22] = system: BT-549; assay: Antiproliferative activity against human BT-549 cells assessed as growth inhibition incubated at 10 uM for 24 hrs by MTT assay relative to control; assay type: functional; conditions: read-out: GI
[23] = system: SK-MEL-1; assay: Antiproliferative activity against human SK-MEL-1 cells assessed as growth inhibition incubated at 10 uM for 24 hrs by MTT assay relative to control; assay type: functional; conditions: read-out: GI
[24] = biological target: Cyclin-dependent kinase 1 (Homo sapiens, UniProt P06493); assay: Inhibition of CDK1 (unknown origin) by FRET assay
Cyclin-dependent kinase 1, sequence (P06493 whole entry): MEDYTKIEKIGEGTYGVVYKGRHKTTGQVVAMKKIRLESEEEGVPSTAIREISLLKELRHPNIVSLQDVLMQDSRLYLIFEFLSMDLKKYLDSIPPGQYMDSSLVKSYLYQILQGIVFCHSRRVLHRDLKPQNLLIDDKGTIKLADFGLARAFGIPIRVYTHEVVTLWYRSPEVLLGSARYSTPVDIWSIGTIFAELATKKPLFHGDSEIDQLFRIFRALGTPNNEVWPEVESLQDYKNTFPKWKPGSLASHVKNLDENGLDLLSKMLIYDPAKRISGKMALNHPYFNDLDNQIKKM

[25] = system: T84; assay: Antiproliferative activity against human T84 cells assessed as growth inhibition incubated at 10 uM for 24 hrs by MTT assay relative to control; assay type: functional; conditions: read-out: GI
[26] = biological target: Protein-tyrosine kinase 2-beta (Homo sapiens, UniProt Q14289); assay: Inhibition of PTK2B (unknown origin) by FRET assay
Protein-tyrosine kinase 2-beta, sequence (Q14289 whole entry): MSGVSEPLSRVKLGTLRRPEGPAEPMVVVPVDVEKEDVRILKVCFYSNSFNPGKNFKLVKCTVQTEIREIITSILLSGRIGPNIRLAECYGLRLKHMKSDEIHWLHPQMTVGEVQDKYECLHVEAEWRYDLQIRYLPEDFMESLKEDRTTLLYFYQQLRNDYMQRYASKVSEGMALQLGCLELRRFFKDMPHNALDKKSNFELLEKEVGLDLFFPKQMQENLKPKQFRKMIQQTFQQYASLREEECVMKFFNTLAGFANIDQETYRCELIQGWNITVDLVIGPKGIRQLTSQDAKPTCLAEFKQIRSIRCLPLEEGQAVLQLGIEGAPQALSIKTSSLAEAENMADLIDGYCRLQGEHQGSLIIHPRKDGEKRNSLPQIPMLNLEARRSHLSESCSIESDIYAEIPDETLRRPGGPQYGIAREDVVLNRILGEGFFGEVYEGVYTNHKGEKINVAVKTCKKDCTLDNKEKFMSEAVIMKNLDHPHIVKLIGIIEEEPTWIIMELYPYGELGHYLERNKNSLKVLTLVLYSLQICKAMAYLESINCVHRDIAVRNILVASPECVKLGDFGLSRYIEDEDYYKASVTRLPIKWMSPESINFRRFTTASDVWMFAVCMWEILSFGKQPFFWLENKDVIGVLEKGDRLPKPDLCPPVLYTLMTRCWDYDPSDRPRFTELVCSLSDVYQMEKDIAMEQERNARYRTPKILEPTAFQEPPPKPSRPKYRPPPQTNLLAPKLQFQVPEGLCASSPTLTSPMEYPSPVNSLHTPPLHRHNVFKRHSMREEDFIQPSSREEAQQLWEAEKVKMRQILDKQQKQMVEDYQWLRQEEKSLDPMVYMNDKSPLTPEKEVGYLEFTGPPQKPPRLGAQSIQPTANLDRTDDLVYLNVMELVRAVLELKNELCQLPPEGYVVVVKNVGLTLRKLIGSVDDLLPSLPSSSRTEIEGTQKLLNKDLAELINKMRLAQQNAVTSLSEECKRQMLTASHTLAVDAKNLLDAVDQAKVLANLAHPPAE

[27] = Antiproliferative activity against human PL45 cells assessed as growth inhibition incubated for 24 hrs by MTT assay; assay type: functional, cell-based; conditions: PL45, 24 h

Row | Structure (SMILES) | inhibition of growth at 10 µM [1] | inhibition of growth at 10 µM [2] | inhibition of growth at 10 µM [3] | IC50 [4] | IC50 [5] | inhibition of growth at 10 µM [6] | IC50 [7] | IC50 [8] | IC50 [9] | IC50 [10] | Activity [11] | inhibition of growth at 10 µM [12] | inhibition of growth at 10 µM [13] | Ratio IC50 [14] | IC50 [15] | inhibition of growth at 10 µM [16] | Activity [17] | Ratio IC50 [18] | Activity [19] | IC50 [20] | further results
1 | COc1ccc(Cc2nnc(N3CCN(C(=O)Nc4ccc(Cl)c(C(F)(F)F)c4)CC3)c3ccccc23)cc1 | 61.4% | 84.1% | 99% | 5650 nM | 4626 nM | 71.4% | 5510 nM | 369 nM | 5260 nM | 305 nM | 21% | 72.3% | 97.6% | 8.29 | 2830 nM | 89.2% | Active | 10 | Active | 510 nM | inhibition of growth at 10 µM [21]: 87.4%; inhibition of growth at 10 µM [22]: 85.5%; inhibition of growth at 10 µM [23]: 74%; IC50 [24]: 36.8 nM; inhibition of growth at 10 µM [25]: 89.6%; IC50 [26]: 3630 nM; IC50 [27]: 740 nM
2 | COc1ccc(Cc2nnc(N3CCN(C(=S)Nc4cccc(Cl)c4)CC3)c3ccccc23)cc1 | 92.3% | 89.3% | 97.1% | 5650 nM | 2538 nM | 62% | 8550 nM | 354 nM | 2420 nM | 189 nM | 14% | 74.2% | 93.5% | 4.47 | 8140 nM | 86.4% | Active | 8.39 | Active | 730 nM | inhibition of growth at 10 µM [21]: 85%; inhibition of growth at 10 µM [22]: 78%; inhibition of growth at 10 µM [23]: 84.2%; IC50 [24]: 42.2 nM; inhibition of growth at 10 µM [25]: 88.2%; IC50 [26]: 8950 nM; IC50 [27]: 1000 nM
